# Active and inactive are the calls of the source.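 How the source made its calls: active means caspase luminescence falls with dose and the half-maximal concentration AC50 from the fitted curve is at or below a set limit; inconclusive means flat fit at 30 to 70% signal loss, or invalid fit; inactive means AC50 above the limit, or signal rises instead.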
# Test system: INS-1E cytokine-induced caspase-3/7, Caspase-Glo luminescence, 48 h
# Test: suppression of cytokine-driven beta-cell apoptosis – INS-1E rat cells, luminescence, orthogonal assay for beta-cell apoptosis protection project, dose response (AID 463206)
row,SMILES,AC50
1,CC(=O)N1CCN(c2ccc(Oc3ccc([N+](=O)[O-])c(C(F)(F)F)c3)cc2)CC1,> 26 µM (inactive)
2,FC(F)(F)c1ccc(CN2C[C@@H]3C(c4ccc(C(F)(F)F)cc4)C4(c5cccnc5)CC3(C4)[C@H]2c2ccccc2)cc1 (some centres not stated),> 26 µM (inactive)
3,O=C(NCc1cccnc1)c1ccc([N+](=O)[O-])cc1,> 26 µM (inactive)
4,CCN(CC)S(=O)(=O)c1cc(NC(=O)CNc2cccc(S(=O)(=O)N3CCCC3)c2)ccc1C,> 26 µM (inactive)
5,O=C(Nc1ccc([N+](=O)[O-])cc1)Nc1nc(-c2ccc(Cl)s2)cs1,> 26 µM (inactive)
6,Cc1ccc(NC2=C/C(=N/S(=O)(=O)c3cccs3)c3ccccc3C2=O)cc1,> 26 µM (inactive)
7,CCOC(=O)c1cnc(-n2nc(C)cc2C)nc1NNc1nc(-c2ccccc2)cc(-c2ccccc2)n1,> 26 µM (inactive)
8,O=C(CC1C(=O)NCCN1Cc1ccc(-c2ccccc2)cc1)NC1CCC1 (configuration not stated),> 26 µM (inactive)
9,CCOC(=O)c1cnc(-n2nc(C)cc2C)nc1Nc1ccc(O)cc1,> 26 µM (inactive)
10,CC1CCN(Cc2c(C(=O)N/N=C/c3cc(Br)ccc3O)nnn2-c2nonc2N)CC1,> 26 µM (inactive)
11,CC(NC(=O)c1cc(COc2ccc3ncccc3c2)on1)c1ccc(F)cc1 (configuration not stated),> 26 µM (inactive)
12,O=C(CSc1nnc(Cn2nnc3ccccc32)o1)N(Cc1ccc(Cl)cc1)c1ccccc1,> 26 µM (inactive)
13,Cc1ccc(NC2=C/C(=N\S(=O)(=O)c3cccs3)c3ccccc3C2=O)c(C)c1,> 26 µM (inactive)
14,CCN(Cc1ccccc1)C(c1cccs1)c1nnnn1C1CCCCC1 (configuration not stated),> 26 µM (inactive)
15,C/C(=N\NC(N)=S)c1ccncc1,> 26 µM (inactive)
16,O=[N+]([O-])c1ccc(-c2nc(C(Cl)Cl)c3ccccc3n2)cc1,0.62 µM
17,O=C(CN1C(=O)c2ccccc2S1(=O)=O)c1ccc(F)cc1,> 26 µM (inactive)
18,COC(=O)[C@H](Cc1ccccc1)N(Cc1ccccc1)S(=O)(=O)N(Cc1ccccc1)[C@@H](Cc1ccccc1)C(=O)OC,> 26 µM (inactive)
19,c1ccc(-c2nnc(-c3ccccn3)nc2NC2CCCCC2)cc1,> 26 µM (inactive)
20,O=C(CNc1ccc(F)cc1)N/N=C/c1c(O)ccc2ccccc12,> 26 µM (inactive)
21,COc1ccc(C(=O)N/N=C/c2sc3ccccc3c2O)cc1,> 26 µM (inactive)
22,CCCCCc1cc(=O)oc2c(C(CCN3CCCCC3)c3ccc4c(c3)OCO4)c(OC)cc(OC)c12 (configuration not stated),> 26 µM (inactive)
23,CCOC(=O)N1CCN(S(=O)(=O)c2ccc(C(=O)NNc3nc4c(C)cc(C)cc4s3)cc2)CC1,> 26 µM (inactive)

row,SMILES,AC50
1,C=CCCc1ccc(C#N)c(SCc2c(C(=O)OCC)c3cc(OC(C)=O)c(Br)cc3n2C)n1,> 26 µM (inactive)
2,Cc1ccc(C)c(-c2csc(NC(=O)C3=COCCO3)n2)c1,> 26 µM (inactive)
3,CCn1c(C)nc2cc(-c3nnc(-c4c(-c5ccccc5)noc4C)o3)ccc21,> 26 µM (inactive)
4,CCC(CO)Oc1cc(NCc2ccc(C)c(C)c2)c2ncn(C(C)C)c2c1 (configuration not stated),> 26 µM (inactive)
5,Nc1ccc2c(c1)C(=O)C(=O)c1ccccc1-2,> 26 µM (inactive)
6,CC1Cc2ccccc2N1C(=O)CSc1nc2ccccc2o1 (configuration not stated),> 26 µM (inactive)
7,O=C(N/N=C\c1c(O)ccc2ccccc12)c1ccc(Cn2cccn2)o1,> 26 µM (inactive)
8,Cc1ccc2c(c1)N(C(=O)CCC(=O)NCCCN1CCC(Cc3ccccc3)CC1)CCO2,10.8 µM
9,CCCCCc1nc2c(c(=O)c3ccccc3n2C)c(=O)n1C1CCCCCC1,> 26 µM (inactive)
10,CC(C)(C)C1CCC2(CC1)C(C#N)=C(SCC(=O)NC1CCCCC1)NC(=O)C2C#N (configuration not stated),> 26 µM (inactive)
11,CN(C)CCCn1cnc2c(c1=N)C(c1ccccc1)c1ccc3ccccc3c1O2 (configuration not stated),9.99 µM
12,COc1cccc(/C=N/Nc2nc3ccccc3n3cnnc23)c1O,> 26 µM (inactive)
13,Cc1ccccc1NC(=S)N/N=C/c1ccc(O)cc1O,> 26 µM (inactive)
14,O=C(C[C@@H]1C/C=C/CC[C@H](Cc2ccc(F)cc2)C(=O)OC[C@@H](Cc2ccccc2)NC1=O)N[C@H](CO)Cc1ccccc1,> 26 µM (inactive)
15,CCN(CC)CCNC(=O)c1ccc(NC(=O)c2cn(-c3ccccc3)nc2-c2cccs2)cc1,18.2 µM
16,Cc1cc(C)n(-c2nc(NC(C)(C)C)nc(NC(C)(C)C)n2)n1,> 26 µM (inactive)
17,C[N+]1=C(/C=C/Nc2ccccc2Cl)C(C)(C)c2ccccc21,> 26 µM (inactive)
18,CC(=O)/C=C1\N(C)c2ccc(C)cc2C1(C)C,> 26 µM (inactive)
19,COc1cc(C(=O)N/N=C(\c2ccccc2)c2ccccn2)cc(OC)c1OC,> 26 µM (inactive)
20,NC(=S)N/N=C/c1c(O)ccc2ccccc12,> 26 µM (inactive)
21,C/C(=N\NC(=O)c1ccc(F)cc1)c1ccccn1,> 26 µM (inactive)
22,Cc1[nH]n(-c2ccc(Br)cc2)c(=O)c1/C=N/NC(=O)c1ccccc1,> 26 µM (inactive)
23,CCCCCc1ccc(OCCCC[n+]2ccc(C)cc2)c(CCCCC)c1,> 26 µM (inactive)

row,SMILES,AC50
1,CCCCNc1c(-c2ccc(OC)c(SC(C)CC)c2)nc2ccc(C)cn12 (configuration not stated),> 26 µM (inactive)
2,CCOC(=O)C(=Cc1ccc(Br)cc1)C(=O)OCC,> 26 µM (inactive)
3,CCOc1ccc(N=Cc2c(C)[nH]n(-c3nc4ccccc4[nH]3)c2=O)cc1,> 26 µM (inactive)
4,C=C(C=O)C[C@@H]1C[C@H](O)C2OC3C[C@]4(C)OC5/C=C\CC6OC7C(CC=CCC6OC5CCCC4OC3CC2O1)OC1CC2OC3CC(=O)OC3C[C@@H](C)C[C@@]2(C)OC1C[C@@H]7C (some centres not stated),> 26 µM (inactive)
5,O=C(N/N=C(\c1ccccc1)c1cccnc1)c1cccc(F)c1,> 26 µM (inactive)
6,Cc1ccccc1NC1=C/C(=N\S(=O)(=O)c2cccs2)c2ccccc2C1=O,> 26 µM (inactive)
7,COc1ccc(/C=C/c2nc3ccccc3n2C)cc1,> 26 µM (inactive)
8,COc1cccc(/C=N/NC(=O)c2[nH]nc3c2CCc2ccccc2-3)c1O,> 26 µM (inactive)
9,CCn1c(-c2ccc(C)cc2)nn(CC(=O)NCCc2ccccc2)c1=S,> 26 µM (inactive)
10,O=C(c1cc2sccc2n1Cc1ccc(F)cc1)N1CCN(c2nc3ccccc3s2)CC1,> 26 µM (inactive)
11,Cc1onc(-c2ccccc2)c1C(=O)NC(=S)NNC(=O)c1ccc(O)cc1O,> 26 µM (inactive)
12,Cc1c2ccncc2c(C)c2c1[nH]c1ccccc12,1.11 µM
13,O=C(NC(Nc1nc2ccc([N+](=O)[O-])cc2s1)(C(F)(F)F)C(F)(F)F)c1ccccc1,> 26 µM (inactive)
14,COc1cc2c(cc1OC)-c1c(OC)c(OC)c(OC)c3ccnc(c13)C2=O,7.97 µM
15,CCOc1ccc(-n2c(-c3ccc(Br)cc3)c[n+]3c2CCCCC3)cc1,> 26 µM (inactive)
16,CCOC(=O)C1=C(CCc2ccccc2)NC(=O)NC1c1ccc2ccccc2c1 (configuration not stated),> 26 µM (inactive)
17,Cc1cc(C(=O)NC2CCCc3c2cnn3-c2ccc(C)c(C)c2)n(C)n1 (configuration not stated),> 26 µM (inactive)
18,C(=N\Nc1ncnc2sc3c(c12)CCC3)/c1cccs1,> 26 µM (inactive)
19,CC1(C)CC(N2CCN(Cc3ccccc3)CC2)=CC(=[N+]2CCCCC2)C1,> 26 µM (inactive)
20,COc1ccc(-c2nn(-c3ccccc3)cc2/C=N/N2C(=O)CSC2=S)cc1,> 26 µM (inactive)
21,Cc1nc(C)c(C(=O)N/N=C/c2cc(Br)ccc2O)s1,> 26 µM (inactive)

# Reference: PubChem BioAssay AID463206 (Broad Institute, 2010)
